We go through 1 compound from patent publication US20240365782A1, “USE OF 2-AMINO-3-METHYLHEXANOIC ACID IN PROMOTING PLANT GROWTH AND INCREASING YIELD” (NANJING AGRICULTURAL UNIVERSITY, priority 2021, published 2024).

Assay [1] has as its system cucumber seedlings. The experiment in a line: Hydroponic treatment: rooting of radicle-removed cucumber seedlings. Type of assay: in vivo. The note with it: for Lateral root number / Root length: cucumber seedlings, 6 days. The source says:
To further investigate a promoting effect of 2-amino-3-methylhexanoic acid on growth of plant roots, a model system for studying root generation, a radicle-removed cucumber seedling system, was selected. Four layers of wet gauze were spread on a bottom part of a seedling box, and healthy, full and uniform cucumber seeds (variety “Chuxiaqiuguan”, Ningyang County Luming Seed Co., Ltd., Shandong Province) were picked, washed with distilled water, uniformly spread on the gauze, and then covered with four layers of the wet gauze for keeping in a dark place. After kept in a dark place in a 25° C. culture room for 24 hours, the germinated cucumber seeds were taken out and buried in a position 1 cm below the soil, a plurality of plants with consistent growth vigor and completely unfolded two cotyledons were taken after 3 days, the roots were washed with the distilled water, the radicles were cut off, and the plants were fixed with sponge strips and placed in a centrifuge tube box. 400 mL of a 2-amino-3-methylhexanoic acid aqueous solution at concentrations of 0, 10, 100, and 1,000 nM, respectively was added to each box. The hydroponic plants were placed in the 25° C. culture room. After 6 days of light culture, the plants were taken out and the root length and number of newly generated roots were measured and recorded.

In assay [2] the test system is Achromobacter butyri. Particulars: cited from earlier work.
Assay [3] relates to Pseudomonas aeruginosa. Particulars: cited from earlier work.
The test system of assay [4] is Aerobacter aerogenes. The note with it: cited from earlier work.
Assay [5] concerns S. marcescens. The note with it: cited from earlier work.

As for `CCCC(C)C(N)C(=O)O` (stereo not shown) [2-amino-3-methylhexanoic acid], the Lateral root number stood at 16.00 ± 1.73a piece in assay [1] (hydroponic 10 nM), 19.33 ± 1.53a piece in assay [1] (hydroponic 100 nM) and 14.33 ± 5.13a piece in assay [1] (hydroponic 1,000 nM). The Root length is listed as 2.04 ± 0.67b cm in assay [1] (hydroponic 10 nM), 5.36 ± 0.82a cm in assay [1] (hydroponic 100 nM) and 4.50 ± 1.28a cm in assay [1] (hydroponic 1,000 nM). In addition, the results for the “Cucumber root length improved compared with the blank control” value in assay [1] (hydroponic 10 nM), in assay [1] (hydroponic 100 nM) and in assay [1] (hydroponic 1,000 nM) were 33%, 199% and 154%, respectively. Besides, the “Number of root generation improved compared with the blank control” value in assay [1] (hydroponic 10 nM) was found to be 182%; in assay [1] (hydroponic 1,000 nM), 153%. Further, the “Number of root generation (lateral root number) improved compared with the blank control” value in assay [1] (hydroponic 100 nM) is 241%. For the same compound, the Inhibitory effect entry in assay [2] was “slight inhibitory effect”; in assay [3] it was “slight inhibitory effect”; in assay [4], “no inhibitory effect”; in assay [5] it was “no inhibitory effect”.
